{"source": "patent US9695155B2", "about": "“Herbicidal substituted pyrimidinyloxy benzene compounds” (E. I. DU PONT DE NEMOURS AND COMPANY, priority 2013, dated 2017)", "key": {"dayflower": {"tested_on": "dayflower", "test": "Test E postemergence", "type": "in vivo, Commelina virginica", "conditions": "Commelina virginica, post-emergence, read-out: Plant response rating, Dayflower, VA; for pest or weed control at 31 g/ha / pest or weed control at 62 g/ha / pest or weed control at 125 g/ha / pest or weed control at 250 g/ha: Postemergence, scale 0 to 100; for pest or weed control at 31 g/ha: 31 g ai/ha; for pest or weed control at 62 g/ha: 62 g ai/ha; for pest or weed control at 125 g/ha: 125 g ai/ha; for pest or weed control at 250 g/ha: 250 g ai/ha; for pest or weed control at 16 g/ha: postemergence, 16 g ai/ha, scale 0 to 100, 0 no effect, 100 complete control", "method_in_brief": "(§1)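 Response was scored visually on a 0-100 scale (100 = complete control) versus controls after 14 to 21 days in the greenhouse. Test chemicals, formulated with surfactant in a non-phytotoxic solvent mixture, had been applied preemergence to seeds in silt loam soil or postemergence to 1- to 4-leaf plants in potting medium.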"}, "kochia": {"tested_on": "kochia", "test": "Test D postemergence", "type": "in vivo, Kochia scoparia", "conditions": "Bassia scoparia, post-emergence, scale 0 to 100 (0 no effect, 100 complete control), read-out: Plant response rating, Kochia", "method_in_brief": "(§2)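 Visual rating vs untreated controls, 0 = no effect, 100 = complete control, taken 7–21 d after treatment. Pre: silt loam soil. Post: potting medium, plants 2–18 cm, 1–4 leaf. Formulation: non-phytotoxic solvent mix + surfactant.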"}, "deadnettle": {"tested_on": "deadnettle", "test": "Test D preemergence", "type": "in vivo, Lamium amplexicaule", "conditions": "Lamium amplexicaule, pre-emergence, scale 0-100, read-out: Plant response rating, Deadnettle", "method_in_brief": "as §2"}, "green foxtail": {"tested_on": "green foxtail", "test": "Test D postemergence", "type": "in vivo, Setaria viridis", "conditions": "Setaria viridis, post-emergence, scale 0 to 100 (0 no effect, 100 complete control), read-out: Plant response rating, Foxtail, Green", "method_in_brief": "as §2"}, "lambsquarters [1]": {"tested_on": "lambsquarters", "test": "Test D postemergence", "type": "in vivo, Chenopodium album", "conditions": "Chenopodium album, post-emergence, scale 0 to 100 (0 no effect, 100 complete control), read-out: Plant response rating, Lambsquarters", "method_in_brief": "as §2"}, "galium": {"tested_on": "galium", "test": "Test D postemergence", "type": "in vivo, Galium aparine", "conditions": "Galium, post-emergence, scale 0 to 100 (0 no effect, 100 complete control), read-out: Plant response rating, Galium", "method_in_brief": "as §2"}, "Italian ryegrass": {"tested_on": "Italian ryegrass", "test": "Test E postemergence", "type": "in vivo, Lolium multiflorum", "conditions": "Lolium multiflorum, post-emergence, read-out: Plant response rating, Ryegrass, Italian; for pest or weed control at 31 g/ha / pest or weed control at 62 g/ha / pest or weed control at 125 g/ha / pest or weed control at 250 g/ha: Postemergence, scale 0 to 100; for pest or weed control at 31 g/ha: 31 g ai/ha; for pest or weed control at 62 g/ha: 62 g ai/ha; for pest or weed control at 125 g/ha: 125 g ai/ha; for pest or weed control at 250 g/ha: 250 g ai/ha; for pest or weed control at 16 g/ha: postemergence, 16 g ai/ha, scale 0 to 100, 0 no effect, 100 complete control", "method_in_brief": "as §1"}, "canarygrass": {"tested_on": "canarygrass", "test": "Test D postemergence", "type": "in vivo, Phalaris minor", "conditions": "Phalaris minor, post-emergence, scale 0 to 100 (0 no effect, 100 complete control), read-out: Plant response rating, Canarygrass", "method_in_brief": "as §2"}, "oilseed rape": {"tested_on": "oilseed rape", "test": "Test D postemergence", "type": "in vivo, Brassica napus", "conditions": "Brassica napus, post-emergence, scale 0 to 100 (0 no effect, 100 complete control), read-out: Plant response rating, Oilseed Rape", "method_in_brief": "as §2"}, "lambsquarters [2]": {"tested_on": "lambsquarters", "test": "Test D preemergence", "type": "in vivo, Chenopodium album", "conditions": "Chenopodium album, pre-emergence, scale 0-100, read-out: Plant response rating, Lambsquarters", "method_in_brief": "as §2"}, "wild oat": {"tested_on": "wild oat", "test": "Test D postemergence", "type": "in vivo, Avena fatua", "conditions": "Avena fatua, post-emergence, scale 0 to 100 (0 no effect, 100 complete control), read-out: Plant response rating, Oat, Wild", "method_in_brief": "as §2"}, "blackgrass": {"tested_on": "blackgrass", "test": "Test D postemergence", "type": "in vivo, Alopecurus myosuroides", "conditions": "Alopecurus myosuroides, post-emergence, Postemergence, scale 0 to 100 (0 no effect, 100 complete control), read-out: Plant response rating, Blackgrass", "method_in_brief": "as §2"}, "field violet": {"tested_on": "field violet", "test": "Test D preemergence", "type": "in vivo, Viola arvensis", "conditions": "Viola arvensis, pre-emergence, scale 0-100, read-out: Plant response rating, Field Violet", "method_in_brief": "as §2"}}}
{"smiles": "N#Cc1cccc(Oc2ncc(Br)cn2)c1-n1cc(C(F)(F)F)cn1", "note": "[Compound 59, 3-[(5-bromo-2-pyrimidinyl)oxy]-2-[4-(trifluoromethyl)-1H-pyrazol-1-yl]benzonitrile]", "values": [{"measurement": "pest or weed control at 31 g/ha", "setting": "dayflower", "result": 35, "unit": "%"}, {"measurement": "pest or weed control at 62 g/ha", "setting": "dayflower", "result": 50, "unit": "%"}, {"measurement": "pest or weed control at 125 g/ha", "setting": "dayflower", "result": 70, "unit": "%"}, {"measurement": "pest or weed control at 250 g/ha", "setting": "dayflower", "result": 100, "unit": "%"}, {"measurement": "pest or weed control at 16 g/ha", "setting": "dayflower", "result": 20, "unit": "%"}, {"measurement": "pest or weed control at 31 g/ha", "setting": "kochia; 31 g ai/ha", "result": 95, "unit": "%"}, {"measurement": "pest or weed control at 62 g/ha", "setting": "kochia; 62 g ai/ha", "result": 95, "unit": "%"}, {"measurement": "pest or weed control at 125 g/ha", "setting": "kochia; 125 g ai/ha", "result": 95, "unit": "%"}, {"measurement": "pest or weed control at 250 g/ha", "setting": "kochia; 250 g ai/ha", "result": 95, "unit": "%"}, {"measurement": "pest or weed control at 31 g/ha", "setting": "deadnettle; 31 g ai/ha", "result": 100, "unit": "%"}, {"measurement": "pest or weed control at 62 g/ha", "setting": "deadnettle; 62 g ai/ha", "result": 100, "unit": "%"}, {"measurement": "pest or weed control at 125 g/ha", "setting": "deadnettle; 125 g ai/ha", "result": 100, "unit": "%"}, {"measurement": "pest or weed control at 250 g/ha", "setting": "deadnettle; 250 g ai/ha", "result": 100, "unit": "%"}, {"measurement": "pest or weed control at 31 g/ha", "setting": "green foxtail; 31 g ai/ha", "result": 20, "unit": "%"}, {"measurement": "pest or weed control at 62 g/ha", "setting": "green foxtail; 62 g ai/ha", "result": 35, "unit": "%"}, {"measurement": "pest or weed control at 125 g/ha", "setting": "green foxtail; 125 g ai/ha", "result": 50, "unit": "%"}, {"measurement": "pest or weed control at 250 g/ha", "setting": "green foxtail; 250 g ai/ha", "result": 80, "unit": "%"}, {"measurement": "pest or weed control at 31 g/ha", "setting": "lambsquarters [1]; 31 g ai/ha", "result": 90, "unit": "%"}, {"measurement": "pest or weed control at 62 g/ha", "setting": "lambsquarters [1]; 62 g ai/ha", "result": 85, "unit": "%"}, {"measurement": "pest or weed control at 125 g/ha", "setting": "lambsquarters [1]; 125 g ai/ha", "result": 80, "unit": "%"}, {"measurement": "pest or weed control at 250 g/ha", "setting": "lambsquarters [1]; 250 g ai/ha", "result": 95, "unit": "%"}, {"measurement": "pest or weed control at 31 g/ha", "setting": "galium; 31 g ai/ha", "result": 75, "unit": "%"}, {"measurement": "pest or weed control at 62 g/ha", "setting": "galium; 62 g ai/ha", "result": 80, "unit": "%"}, {"measurement": "pest or weed control at 125 g/ha", "setting": "galium; 125 g ai/ha", "result": 95, "unit": "%"}, {"measurement": "pest or weed control at 250 g/ha", "setting": "galium; 250 g ai/ha", "result": 95, "unit": "%"}, {"measurement": "pest or weed control at 31 g/ha", "setting": "Italian ryegrass", "result": 0, "unit": "%"}, {"measurement": "pest or weed control at 62 g/ha", "setting": "Italian ryegrass", "result": 15, "unit": "%"}, {"measurement": "pest or weed control at 125 g/ha", "setting": "Italian ryegrass", "result": 25, "unit": "%"}, {"measurement": "pest or weed control at 250 g/ha", "setting": "Italian ryegrass", "result": 60, "unit": "%"}, {"measurement": "pest or weed control at 16 g/ha", "setting": "Italian ryegrass", "result": 0, "unit": "%"}, {"measurement": "pest or weed control at 31 g/ha", "setting": "canarygrass; 31 g ai/ha", "result": 20, "unit": "%"}, {"measurement": "pest or weed control at 62 g/ha", "setting": "canarygrass; 62 g ai/ha", "result": 30, "unit": "%"}, {"measurement": "pest or weed control at 125 g/ha", "setting": "canarygrass; 125 g ai/ha", "result": 35, "unit": "%"}, {"measurement": "pest or weed control at 250 g/ha", "setting": "canarygrass; 250 g ai/ha", "result": 35, "unit": "%"}, {"measurement": "plant injury at 31 g/ha", "setting": "oilseed rape; 31 g ai/ha", "result": 65, "unit": "%"}, {"measurement": "plant injury at 62 g/ha", "setting": "oilseed rape; 62 g ai/ha", "result": 65, "unit": "%"}, {"measurement": "plant injury at 125 g/ha", "setting": "oilseed rape; 125 g ai/ha", "result": 75, "unit": "%"}, {"measurement": "plant injury at 250 g/ha", "setting": "oilseed rape; 250 g ai/ha", "result": 100, "unit": "%"}, {"measurement": "pest or weed control at 31 g/ha", "setting": "lambsquarters [2]; 31 g ai/ha", "result": 95, "unit": "%"}, {"measurement": "pest or weed control at 62 g/ha", "setting": "lambsquarters [2]; 62 g ai/ha", "result": 100, "unit": "%"}, {"measurement": "pest or weed control at 125 g/ha", "setting": "lambsquarters [2]; 125 g ai/ha", "result": 95, "unit": "%"}, {"measurement": "pest or weed control at 250 g/ha", "setting": "lambsquarters [2]; 250 g ai/ha", "result": 100, "unit": "%"}, {"measurement": "pest or weed control at 31 g/ha", "setting": "wild oat; 31 g ai/ha", "result": 25, "unit": "%"}, {"measurement": "pest or weed control at 62 g/ha", "setting": "wild oat; 62 g ai/ha", "result": 30, "unit": "%"}, {"measurement": "pest or weed control at 125 g/ha", "setting": "wild oat; 125 g ai/ha", "result": 35, "unit": "%"}, {"measurement": "pest or weed control at 250 g/ha", "setting": "wild oat; 250 g ai/ha", "result": 50, "unit": "%"}, {"measurement": "pest or weed control at 62 g/ha", "setting": "blackgrass; 62 g ai/ha", "result": 30, "unit": "%"}, {"measurement": "pest or weed control at 31 g/ha", "setting": "blackgrass; 31 g ai/ha", "result": 25, "unit": "%"}, {"measurement": "pest or weed control at 125 g/ha", "setting": "blackgrass; 125 g ai/ha", "result": 40, "unit": "%"}, {"measurement": "pest or weed control at 250 g/ha", "setting": "blackgrass; 250 g ai/ha", "result": 70, "unit": "%"}, {"measurement": "pest or weed control at 31 g/ha", "setting": "field violet; 31 g ai/ha", "result": 65, "unit": "%"}, {"measurement": "pest or weed control at 62 g/ha", "setting": "field violet; 62 g ai/ha", "result": 85, "unit": "%"}, {"measurement": "pest or weed control at 125 g/ha", "setting": "field violet; 125 g ai/ha", "result": 100, "unit": "%"}, {"measurement": "pest or weed control at 250 g/ha", "setting": "field violet; 250 g ai/ha", "result": 100, "unit": "%"}]}
{"smiles": "Fc1cnc(Oc2ccccc2-n2cc(Br)cn2)nc1", "note": "[Compound 10, 2-[2-(4-bromo-1H-pyrazol-1-yl)phenoxy]-5-fluoropyrimidine]", "values": [{"measurement": "pest or weed control at 31 g/ha", "setting": "dayflower", "result": 10, "unit": "%"}, {"measurement": "pest or weed control at 62 g/ha", "setting": "dayflower", "result": 40, "unit": "%"}, {"measurement": "pest or weed control at 125 g/ha", "setting": "dayflower", "result": 50, "unit": "%"}, {"measurement": "pest or weed control at 250 g/ha", "setting": "dayflower", "result": 75, "unit": "%"}, {"measurement": "pest or weed control at 16 g/ha", "setting": "dayflower", "result": 5, "unit": "%"}, {"measurement": "pest or weed control at 31 g/ha", "setting": "Italian ryegrass", "result": 0, "unit": "%"}, {"measurement": "pest or weed control at 62 g/ha", "setting": "Italian ryegrass", "result": 0, "unit": "%"}, {"measurement": "pest or weed control at 125 g/ha", "setting": "Italian ryegrass", "result": 0, "unit": "%"}, {"measurement": "pest or weed control at 250 g/ha", "setting": "Italian ryegrass", "result": 0, "unit": "%"}, {"measurement": "pest or weed control at 16 g/ha", "setting": "Italian ryegrass", "result": 0, "unit": "%"}]}
